Data on two sequences can be found in patent US20220233661A1, “METHOD OF DETERMINING ELIGIBILITY OF CANCER PATIENT FOR PEPTIDE VACCINE THERAPY” (priority 2019, published 2022).

In experiment [1] the test system is cancer patients. The experiment can be described thus: Test Example 4: correlation between vaccination with individual peptides (or peptide sets) and OS, Cox proportional hazards regression. Format: in vivo, human. Conditions: for HR: Cox proportional hazards regression, OS; for Correlation between immune responses and OS: Negative (mOS) / Correlation between immune responses and OS: Positive (mOS): Table 20, <64% neutrophil and ≥26% lymphocyte; for Correlation between immune responses and OS: Negative (mOS): vaccinated patients with negative IgG response; for Correlation between immune responses and OS: Positive (mOS): vaccinated patients with positive IgG response. The essentials: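 Univariate and multivariate Cox proportional hazards regression of each of 31 vaccine peptides against OS (enrollment to death or last contact), giving HR with 95% CI; also run separately in 2,085 advanced (stage IV+recurrence) and 503 stage I-III patients. Two-sided p<0.05 considered significant.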

Experiment [2] has as its system anti-peptide IgG in plasma. The experiment can be described thus: Test Example 4: peptide-specific IgG titer pre and post vaccination, bead-based multiplexed Luminex assay. Format: in vivo, human. The conditions noted are these: for Pre-vaccination IgG Negative (number of patients) / Pre-vaccination IgG Positive (number of patients): cut off 10 FIU; for Post vaccination IgG: number of (positive) patients among vaccinated: positive IgG response; for Pre-vaccination IgG Negative patients: number of 2,588 patients below 10 FIU; for Pre-vaccination IgG Positive patients: number of 2,588 patients with ≥10 FIU; for Post vaccination IgG: (positive) patients: number of vaccinated patients with positive IgG response; for Correlation between immune responses and OS: Negative (mOS): patients with negative post-vaccination IgG response to the peptide; for Correlation between immune responses and OS: Positive (mOS): patients with positive post-vaccination IgG response to the peptide. The method, boiled down:
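Plasma taken before vaccination and at the end of the first and second cycles; incubated with peptide-coupled beads 2 hours at 25° C., then biotinylated anti-human IgG (gamma chain-specific) and streptavidin-PE. Bead FIU read by Luminex; positivity cutoff 10 FIU in 100-fold diluted samples.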

[3] abbreviates: Table 18, all 2,588 cases, vaccinated vs non-vaccinated.
Where [4] appears, read: Table 18, all 2,588 cases, median OS of patients under PPV containing the peptide.
Where [5] appears, read: Table 18, all 2,588 cases, median OS of patients under PPV not containing the peptide.
The mark [6] stands for this setting: Table 19, 2,085 advanced cancer patients (stage IV+recurrence).
Setting [7] is: Table 19, 2,085 advanced cancer patients (stage IV+recurrence), PPV containing the peptide.
The mark [8] stands for this setting: Table 19, 2,085 advanced cancer patients (stage IV+recurrence), PPV not containing the peptide.
[9] abbreviates: Table 21, patients showing both <64% neutrophil and ≥26% lymphocyte.
Setting [10] is: Table 21, patients showing both <64% neutrophil and ≥26% lymphocyte, PPV containing the peptide.
Where [11] appears, read: Table 21, patients showing both <64% neutrophil and ≥26% lymphocyte, PPV not containing the peptide.
[12] abbreviates: Table 20, patients showing both <64% neutrophil and ≥26% lymphocyte.
[13] abbreviates: patients showing detectable levels.
Setting [14] is: patients showing positive responses.

Consider “WLEYYNLER (listed as Homo sapiens) [SART3-511]”, for which the HR in experiment [1] (setting [3]) came out at 1.0; in experiment [1] (setting [6]) it was 1.0; in experiment [1] (setting [9]), 0.9. In addition, the results for the “Vaccinate cases (mOS)” value in experiment [1] (setting [4]), in experiment [1] (setting [7]) and in experiment [1] (setting [10]) were 439(11.0) M, 346(9.9) M and 179(19.0) M, respectively. Besides, the “Non-vaccinate cases (mOS)” value in experiment [1] (setting [5]) is recorded as 775(11.2) M; in experiment [1] (setting [8]), 623(10.0) M; in experiment [1] (setting [11]) it was 328(17.5) M. In addition, the Correlation between immune responses and OS: Negative (mOS) in experiment [1] was determined as 17.1 months; in experiment [2] it was 10.8 months. The Correlation between immune responses and OS: Positive (mOS) in experiment [1] was found to be 29.2 months; in experiment [2] it was 22.6 months. Further, the figures for the “Post vaccination IgG Median (FIU)” value in experiment [2] (setting [12]) and in experiment [2] (setting [14]) were 1,095 FIU and 921 FIU, respectively. Moreover, the “Pre-vaccination IgG Median (FIU)” value is reported as 38 FIU in experiment [2] (setting [12]) and 41 FIU in experiment [2] (setting [13]). Also, the “Pre-vaccination IgG Negative (number of patients)” value in experiment [2] (setting [12]) turned out to be 264. Besides, in experiment [2] (setting [12]), the “Pre-vaccination IgG Positive (number of patients)” value was determined as 802. Further, in experiment [2] (setting [12]), the “Post vaccination IgG: number of (positive) patients among vaccinated” value was 179(82). In experiment [2], the “Pre-vaccination IgG Negative patients” value was determined as 621. Further, the “Pre-vaccination IgG Positive patients” value in experiment [2] is given as 1,967. In addition, in experiment [2], the “Post vaccination IgG: (positive) patients” value is 439(145).

In the case of “AYDFLYNYL (listed as Homo sapiens) [SART2-161]”, the HR in experiment [1] (setting [3]) came to 1.0; in experiment [1] (setting [6]), 0.9; in experiment [1] (setting [9]), 1.1. Moreover, the “Vaccinate cases (mOS)” value is on record as 195(12.3) M in experiment [1] (setting [4]), 156(10.7) M in experiment [1] (setting [7]) and 70(17.4) M in experiment [1] (setting [10]). Moreover, the “Non-vaccinate cases (mOS)” value is given as 13,552(11.9) M in experiment [1] (setting [5]), 1090(10.4) M in experiment [1] (setting [8]) and 555(18.4) M in experiment [1] (setting [11]). Also, the figures for the Correlation between immune responses and OS: Negative (mOS) in experiment [1] and in experiment [2] were 14.4 months and 12.6 months, respectively. Further, the Correlation between immune responses and OS: Positive (mOS) in experiment [1] worked out at 26.7 months; in experiment [2] it was 20.6 months. Besides, the results for the “Post vaccination IgG Median (FIU)” value in experiment [2] (setting [12]) and in experiment [2] (setting [14]) were 775 FIU and 312 FIU, respectively. The “Pre-vaccination IgG Median (FIU)” value in experiment [2] (setting [12]) stood at 27 FIU; in experiment [2] (setting [13]) it was 29 FIU. In addition, the “Pre-vaccination IgG Negative (number of patients)” value in experiment [2] (setting [12]) is given as 699. Also, the “Pre-vaccination IgG Positive (number of patients)” value in experiment [2] (setting [12]) is on record as 367. Also, the “Post vaccination IgG: number of (positive) patients among vaccinated” value in experiment [2] (setting [12]) is 70(26). Further, the “Pre-vaccination IgG Negative patients” value in experiment [2] is 1,641. Besides, the “Pre-vaccination IgG Positive patients” value in experiment [2] is listed as 947. Moreover, the “Post vaccination IgG: (positive) patients” value in experiment [2] is given as 195(61).
